# How the values were obtained:
# Format in all cases: in vivo
# [1] = tested on: giant foxtail (Setaria faberi); test: Test G Post-Emergence Protocol
# Method: (§1) Seeds of corn (Zea mays), giant foxtail (Setaria faberi), barnyardgrass (Echinochloa crus-galli), ivy-leaved morning glory (Ipomoea hederacea), redroot pigweed (Amaranthus retroflexus) and velvetleaf (Abutilon theophrasti) were sown in standard soil in pots. After cultivation for 8 days under controlled conditions in a glasshouse (at 24/16° C., day/night; 14 hours light; 65% humidity), the plants were sprayed with an aqueous spray solution derived from the formulation of the technical active ingredient in acetone/water (50:50) solution containing 0.5% Tween 20 (polyoxyethylene sorbitan monolaurate, CAS RN 9005-64-5) to give a final dose of 15.625, 62.5 or 250 g/ha of test compound.
# (§2) The test plants were then grown on under controlled conditions in a glasshouse (at 24/16° C., day/night; 14 hours light; 65% humidity) and watered twice daily. After 13 days the test was evaluated (100=total damage to plant; 0=no damage to plant). A dash (-) means no test result.
# [2] = tested on: velvetleaf (Abutilon theophrasti); test: Test G Post-Emergence Protocol
# Method: as §1, §2
# corn (Zea mays) [3] = test: Test G Post-Emergence Protocol
# Method: as §1, §2
# [4] = tested on: redroot pigweed (Amaranthus retroflexus); test: Test G Post-Emergence Protocol
# Method: as §1, §2
# [5] = tested on: barnyardgrass (Echinochloa crus-galli); test: Test G Post-Emergence Protocol
# Method: as §1, §2
# [6] = tested on: ivy-leaved morning glory (Ipomoea hederacea); test: Test G Post-Emergence Protocol
# Method: as §1, §2
# [7] = tested on: giant foxtail (Setaria faberi); test: Test G Pre-Emergence Protocol; conditions: evaluated after 13 days
# Method: as §1, with “one day” for “8 days”
# as §2
# [8] = tested on: velvetleaf (Abutilon theophrasti); test: Test G Pre-Emergence Protocol; conditions: evaluated after 13 days
# Method: as §1, with “one day” for “8 days”
# as §2
# corn (Zea mays) [9] = test: Test G Pre-Emergence Protocol; conditions: evaluated after 13 days
# Method: as §1, with “one day” for “8 days”
# as §2
# [10] = tested on: redroot pigweed (Amaranthus retroflexus); test: Test G Pre-Emergence Protocol; conditions: evaluated after 13 days
# Method: as §1, with “one day” for “8 days”
# as §2
# [11] = tested on: barnyardgrass (Echinochloa crus-galli); test: Test G Pre-Emergence Protocol; conditions: evaluated after 13 days
# Method: as §1, with “one day” for “8 days”
# as §2
# [12] = tested on: ivy-leaved morning glory (Ipomoea hederacea); test: Test G Pre-Emergence Protocol; conditions: evaluated after 13 days
# Method: as §1, with “one day” for “8 days”
# as §2
# [13] = 15.625 g ai/ha, evaluated after 13 days (100=total damage to plant; 0=no damage to plant)
# [14] = 62.5 g ai/ha, evaluated after 13 days, 100=total damage to plant, 0=no damage to plant
# [15] = 250 g ai/ha, evaluated after 13 days, 100=total damage to plant, 0=no damage to plant
# [16] = 62.5 g ai/ha, 100=total damage to plant, 0=no damage to plant
compound,measurement,setting,value
CCOc1cc(F)cc(C2CN(C)C(=O)C2C(=O)Nc2cccc(F)c2F)c1 (centres unmarked) [Compound 1695],pest or weed control at 15.625 g/ha,"[1]; Setaria faberi, post-emergence, 312 h, 15.625 g ai/ha, evaluated after 13 days (100=total damage to plant; 0=no damage to plant), read-out: Foxtail, Giant damage rating",80%
same,pest or weed control at 62.5 g/ha,"[1]; Setaria faberi, post-emergence, 312 h, 62.5 g ai/ha, evaluated after 13 days, 100=total damage to plant, 0=no damage to plant, read-out: Foxtail, Giant damage rating",80%
same,pest or weed control at 15.625 g/ha,"[2]; Abutilon theophrasti, post-emergence, 312 h, 15.625 g ai/ha, evaluated after 13 days (100=total damage to plant; 0=no damage to plant), read-out: Velvetleaf damage rating",0%
same,pest or weed control at 62.5 g/ha,"[2]; Abutilon theophrasti, post-emergence, 312 h, 62.5 g ai/ha, evaluated after 13 days, 100=total damage to plant, 0=no damage to plant, read-out: Velvetleaf damage rating",10%
same,plant injury at 15.625 g/ha,"corn (Zea mays) [3]; Zea mays, post-emergence, 312 h, 15.625 g ai/ha, evaluated after 13 days (100=total damage to plant; 0=no damage to plant), read-out: Corn damage rating",30%
same,plant injury at 62.5 g/ha,"corn (Zea mays) [3]; Zea mays, post-emergence, 312 h, 62.5 g ai/ha, evaluated after 13 days, 100=total damage to plant, 0=no damage to plant, read-out: Corn damage rating",70%
same,pest or weed control at 15.625 g/ha,"[4]; Amaranthus retroflexus, post-emergence, 312 h, 15.625 g ai/ha, evaluated after 13 days (100=total damage to plant; 0=no damage to plant), read-out: Pigweed, Redroot damage rating",10%
same,pest or weed control at 62.5 g/ha,"[4]; Amaranthus retroflexus, post-emergence, 312 h, 62.5 g ai/ha, evaluated after 13 days, 100=total damage to plant, 0=no damage to plant, read-out: Pigweed, Redroot damage rating",10%
same,pest or weed control at 15.625 g/ha,"[5]; Echinochloa crus-galli, post-emergence, 312 h, 15.625 g ai/ha, evaluated after 13 days (100=total damage to plant; 0=no damage to plant), read-out: Barnyardgrass damage rating",80%
same,pest or weed control at 62.5 g/ha,"[5]; Echinochloa crus-galli, post-emergence, 312 h, 62.5 g ai/ha, evaluated after 13 days, 100=total damage to plant, 0=no damage to plant, read-out: Barnyardgrass damage rating",80%
same,pest or weed control at 15.625 g/ha,"[6]; Ipomoea, post-emergence, 312 h, 15.625 g ai/ha, evaluated after 13 days (100=total damage to plant; 0=no damage to plant), read-out: Morningglory, Ivy-leaved damage rating",10%
same,pest or weed control at 62.5 g/ha,"[6]; Ipomoea, post-emergence, 312 h, 62.5 g ai/ha, evaluated after 13 days, 100=total damage to plant, 0=no damage to plant, read-out: Morningglory, Ivy-leaved damage rating",20%
same,pest or weed control at 15.625 g/ha,"[7]; Setaria faberi, pre-emergence, 312 h, 15.625 g ai/ha, read-out: Foxtail, Giant damage rating (100=total damage to plant; 0=no damage to plant)",70%
same,pest or weed control at 62.5 g/ha,"[7]; Setaria faberi, pre-emergence, 312 h, 62.5 g ai/ha, 100=total damage to plant, 0=no damage to plant, read-out: Foxtail, Giant damage rating",90%
same,pest or weed control at 15.625 g/ha,"[8]; Abutilon theophrasti, pre-emergence, 312 h, 15.625 g ai/ha, read-out: Velvetleaf damage rating (100=total damage to plant; 0=no damage to plant)",0%
same,pest or weed control at 62.5 g/ha,"[8]; Abutilon theophrasti, pre-emergence, 312 h, 62.5 g ai/ha, 100=total damage to plant, 0=no damage to plant, read-out: Velvetleaf damage rating",0%
same,plant injury at 15.625 g/ha,"corn (Zea mays) [9]; Zea mays, pre-emergence, 312 h, 15.625 g ai/ha, read-out: Corn damage rating (100=total damage to plant; 0=no damage to plant)",10%
same,plant injury at 62.5 g/ha,"corn (Zea mays) [9]; Zea mays, pre-emergence, 312 h, 62.5 g ai/ha, 100=total damage to plant, 0=no damage to plant, read-out: Corn damage rating",40%
same,pest or weed control at 15.625 g/ha,"[10]; Amaranthus retroflexus, pre-emergence, 312 h, 15.625 g ai/ha, read-out: Pigweed, Redroot damage rating (100=total damage to plant; 0=no damage to plant)",0%
same,pest or weed control at 62.5 g/ha,"[10]; Amaranthus retroflexus, pre-emergence, 312 h, 62.5 g ai/ha, 100=total damage to plant, 0=no damage to plant, read-out: Pigweed, Redroot damage rating",0%
same,pest or weed control at 15.625 g/ha,"[11]; Echinochloa crus-galli, pre-emergence, 312 h, 15.625 g ai/ha, read-out: Barnyardgrass damage rating (100=total damage to plant; 0=no damage to plant)",50%
same,pest or weed control at 62.5 g/ha,"[11]; Echinochloa crus-galli, pre-emergence, 312 h, 62.5 g ai/ha, 100=total damage to plant, 0=no damage to plant, read-out: Barnyardgrass damage rating",90%
same,pest or weed control at 15.625 g/ha,"[12]; Ipomoea, pre-emergence, 312 h, 15.625 g ai/ha, read-out: Morningglory, Ivy-leaved damage rating (100=total damage to plant; 0=no damage to plant)",0%
Cc1cccc(NC(=O)[C@H]2C(=O)N(C)C[C@@H]2c2ccc(C(F)(F)F)cc2)c1S(C)(=O)=O (racemic) [Compound 1677],"Foxtail, Giant damage rating",[1]; [13],10
same,"Foxtail, Giant damage rating",[1]; [14],30
same,"Foxtail, Giant damage rating",[1]; [15],50
same,Velvetleaf damage rating,[2]; [13],0
same,Velvetleaf damage rating,[2]; [14],0
same,Velvetleaf damage rating,[2]; [15],0
same,Corn damage rating,corn (Zea mays) [3]; [13],0
same,Corn damage rating,corn (Zea mays) [3]; [14],0
same,Corn damage rating,corn (Zea mays) [3]; [15],0
same,"Pigweed, Redroot damage rating",[4]; [13],0
same,"Pigweed, Redroot damage rating",[4]; [14],0
same,"Pigweed, Redroot damage rating",[4]; [15],0
same,Barnyardgrass damage rating,[5]; [13],0
same,Barnyardgrass damage rating,[5]; [14],10
same,Barnyardgrass damage rating,[5]; [15],10
same,"Morningglory, Ivy-leaved damage rating",[6]; [13],0
same,"Morningglory, Ivy-leaved damage rating",[6]; [14],0
same,"Morningglory, Ivy-leaved damage rating",[6]; [15],0
same,"Foxtail, Giant damage rating (100=total damage to plant; 0=no damage to plant)",[7]; 15.625 g ai/ha,10
same,"Foxtail, Giant damage rating",[7]; [16],40
same,"Foxtail, Giant damage rating (100=total damage to plant; 0=no damage to plant)",[7]; 250 g ai/ha,70
same,Velvetleaf damage rating (100=total damage to plant; 0=no damage to plant),[8]; 15.625 g ai/ha,0
same,Velvetleaf damage rating,[8]; [16],0
same,Velvetleaf damage rating (100=total damage to plant; 0=no damage to plant),[8]; 250 g ai/ha,0
same,Corn damage rating (100=total damage to plant; 0=no damage to plant),corn (Zea mays) [9]; 15.625 g ai/ha,0
same,Corn damage rating,corn (Zea mays) [9]; [16],0
same,Corn damage rating (100=total damage to plant; 0=no damage to plant),corn (Zea mays) [9]; 250 g ai/ha,0
same,"Pigweed, Redroot damage rating (100=total damage to plant; 0=no damage to plant)",[10]; 15.625 g ai/ha,0
same,"Pigweed, Redroot damage rating",[10]; [16],0
same,"Pigweed, Redroot damage rating (100=total damage to plant; 0=no damage to plant)",[10]; 250 g ai/ha,0
same,Barnyardgrass damage rating (100=total damage to plant; 0=no damage to plant),[11]; 15.625 g ai/ha,0
same,Barnyardgrass damage rating,[11]; [16],0
same,Barnyardgrass damage rating (100=total damage to plant; 0=no damage to plant),[11]; 250 g ai/ha,10
same,"Morningglory, Ivy-leaved damage rating (100=total damage to plant; 0=no damage to plant)",[12]; 15.625 g ai/ha,0
same,"Morningglory, Ivy-leaved damage rating",[12]; [16],0
same,"Morningglory, Ivy-leaved damage rating (100=total damage to plant; 0=no damage to plant)",[12]; 250 g ai/ha,0

# From patent US12077503B2, “Substituted cyclic amides and their use as herbicides” (FMC CORPORATION, priority 2015, dated 2024)
